≈ marks a conversion by molar mass, not a printed value. Where “and” joins values, the source holds several entries; their conditions need not be identical. Identical values can stand only once.
Legend:
[1] = tested on: Methicillin-resistant S. aureus ATCC 43300; assay: microbe, parasite or virus in culture
Outline: (§1)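 Compounds were serially diluted twofold from 8 to 0.003 µg mL^−1 in Mueller Hinton broth. Inocula came from overnight cultures diluted 40-fold and grown a further 2–3 h.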

[2] = tested on: Multi-drug-resistant S. pneumoniae ATCC 700677; assay: microbe, parasite or virus in culture; conditions: ATCC 700677
Outline: as §1

[3] = tested on: Vancomycin-resistant (VanA) Enterococcus faecium ATCC 51559; assay: microbe, parasite or virus in culture; conditions: ATCC 51559
Outline: as §1

[4] = tested on: Vancomycin-intermediate S. aureus NRS1; assay: microbe, parasite or virus in culture; conditions: Vancomycin-intermediate NRS1
Outline: as §1

[5] = Cytotoxicity MTT assay; format: cell-based, human; conditions: human
Outline: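 Duplicate wells were used, with viability calculated against untreated and positive-control wells. Readout was MTT reduction: 2 h with 0.4 mg mL^−1 MTT, formazan dissolved in DMSO, absorbance at 570 nm. Before that, compound was applied 24 h at 37 °C over 100–0.046 µM (threefold dilutions) to HepG2 or HEK293 cells seeded 24 h earlier in DMEM/1% FBS.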

[6] = tested on: Methicillin-sensitive S. aureus ATCC 29213; assay: microbe, parasite or virus in culture; format: cell-based, Staphylococcus aureus
Description: Antimicrobial activity of compounds was tested against a number of bacterial strains by broth microdilution (BMD) assay with MIC determination, including S. aureus (MSSA ATCC® 29213™, MRSA ATCC® 43300™, VISA NARSA NRS1, VISA NARSA NRS4), Streptococcus pneumoniae (MDR ATCC® 700677™) and Enterococcus faecium (MDR VanA ATCC® 51559™). ATCC strains were sourced from the American Type Culture Collection and NRS strains from NARSA (Network on Antimicrobial Resistance in S. aureus) via BEI Resources (www.beiresources.org). All compounds were prepared to 160 µg mL^−1 solution in water from a stock solution of 1 mM concentration.
[…] […] Standards ranged from 64 to 0.03 µg mL^−1 and compounds from 8 to 0.003 µg mL^−1 with final assay volumes of 100 µL per well. Gram-positive bacteria were cultured in Mueller Hinton broth (MHB) (Bactolaboratories, Cat. no. 211443) at 37 °C overnight. A sample of each culture was then diluted 40-fold in fresh MHB and incubated at 37 °C for 2–3 h. The resultant mid-log phase cultures were added to the compound-containing 96-well plates to give a final cell density of 5 × 10^5 colony forming unit (CFU) mL^−1. All the plates were covered and incubated at 37 °C for 24 h. MICs were the lowest concentration showing no visible growth.

[7] = Cytotoxicity MTT assay; format: cell-based, human; conditions: human; remark: listed apart in the source
[8] = tested on: Vancomycin-resistant S. aureus NARSA VRS4; assay: microbe, parasite or virus in culture; format: cell-based, Staphylococcus aureus; conditions: Vancomycin-resistant NARSA VRS4

Compound: CCCCCCCCCCCCCC(=O)N[C@@H](CCCCN)C(=O)N[C@@H](CCCCN)C(=O)N[C@@H](CCCCN)C(=O)N[C@@H](CCCCNC(=O)[C@H]1NC(=O)[C@H]2NC(=O)[C@H](NC(=O)[C@@H]3NC(=O)[C@H](CC(N)=O)NC(=O)[C@H](NC(=O)[C@@H](CC(C)C)NC)[C@H](O)c4ccc(c(Cl)c4)Oc4cc3cc(c4O[C@@H]3O[C@H](CO)[C@@H](O)[C@H](O)[C@H]3O[C@H]3C[C@](C)(N)[C@H](O)[C@H](C)O3)Oc3ccc(cc3Cl)[C@H]2O)c2ccc(O)c(c2)-c2c(O)cc(O)cc21)C(=O)O [Compound 17, nC13CO-KKK-K(Vancomycin)-OH]
- MIC S. aureus ATCC 43300 MRSA, NBS ([1]; ATCC 43300): ≤ 0.016 µg/mL
- MIC S. aureus ATCC 43300 MRSA, PP ([1]; ATCC 43300): 1 µg/mL (≈ 0.46 µM)
- MIC S. aureus ATCC 43300 MRSA, PS+P-80 ([1]; ATCC 43300): ≤ 0.016 µg/mL
- MIC MRSA ([1]; ATCC 43300, 24 h): <3 ng/mL
- MIC S. aureus ATCC 43300 MRSA, PS ([1]; polystyrene plate, no polysorbate-80): 1 µg/mL and 1 to 2 µg/mL
- MIC MDR S.P. [2]: <0.003 µg/mL
- MIC VRE [3]: 0.125 µg/mL (≈ 0.0575 µM)
- MIC VISA [4]: 0.03 µg/mL (≈ 0.0138 µM)
- CC50 at 24 h [5]: 19 µM
- MIC S. aureus ATCC29213 MSSA, PP ([6]; ATCC 29213): 1 to 2 µg/mL
- MIC S. aureus ATCC29213 MSSA, PS ([6]; ATCC 29213): 1 µg/mL (≈ 0.46 µM)
- MIC S. aureus ATCC29213 MSSA, NBS ([6]; non-binding surface plate): ≤ 0.016 µg/mL
- MIC S. aureus ATCC29213 MSSA, PS+P-80 ([6]; polystyrene plate with 0.002% polysorbate-80): ≤ 0.016 µg/mL
- CC50 at 24 h [7]: 15 µM

Compound: CCCCCCCCCCC(=O)N[C@@H](CCCCN)C(=O)N[C@@H](CCCCN)C(=O)N[C@@H](CCCCN)C(=O)N[C@@H](CCCCNC(=O)[C@H]1NC(=O)[C@H]2NC(=O)[C@H](NC(=O)[C@@H]3NC(=O)[C@H](CC(N)=O)NC(=O)[C@H](NC(=O)[C@@H](CC(C)C)NC)[C@H](O)c4ccc(c(Cl)c4)Oc4cc3cc(c4O[C@@H]3O[C@H](CO)[C@@H](O)[C@H](O)[C@H]3O[C@H]3C[C@](C)(N)[C@H](O)[C@H](C)O3)Oc3ccc(cc3Cl)[C@H]2O)c2ccc(O)c(c2)-c2c(O)cc(O)cc21)C(=O)O [Compound 18, nC10CO-KKK-K(Vancomycin)-OH]
- MIC MRSA ([1]; ATCC 43300, 24 h): 45 ng/mL (≈ 0.0211 µM)
- MIC MDR S.P. [2]: 0.06 µg/mL (≈ 0.0282 µM)
- MIC VISA [4]: 0.5 µg/mL (≈ 0.235 µM)
- CC50 at 24 h [5]: 108 µM
- MIC VRSA [8]: 0.5 µg/mL (≈ 0.235 µM)
- CC50 at 24 h [7]: 106 µM

Compound: CCCCCCCCCCC(=O)N[C@@H](CCCCN)C(=O)N[C@@H](CCCCN)C(=O)N[C@@H](CCCCNC(=O)[C@H]1NC(=O)[C@H]2NC(=O)[C@H](NC(=O)[C@@H]3NC(=O)[C@H](CC(N)=O)NC(=O)[C@H](NC(=O)[C@@H](CC(C)C)NC)[C@H](O)c4ccc(c(Cl)c4)Oc4cc3cc(c4O[C@@H]3O[C@H](CO)[C@@H](O)[C@H](O)[C@H]3O[C@H]3C[C@](C)(N)[C@H](O)[C@H](C)O3)Oc3ccc(cc3Cl)[C@H]2O)c2ccc(O)c(c2)-c2c(O)cc(O)cc21)C(N)=O [Compound 21, nC10CO-KK-K(Vancomycin)-NH2]
- MIC MRSA ([1]; S. aureus ATCC 43300, NBS plates, MHB, 24 h, substance alone): 7 ng/mL (≈ 0.0035 µM)
- MIC MDR S.P. [2]: 0.015 µg/mL (≈ 0.0075 µM)
- MIC VRE [3]: 2 µg/mL (≈ 0.999 µM)
- MIC VISA [4]: 0.06 µg/mL (≈ 0.03 µM)
- CC50 at 24 h [5]: 113 µM
- CC50 at 24 h [7]: 131 µM

From paper PMC5750218, “Protein-inspired antibiotics active against vancomycin- and daptomycin-resistant bacteria” (Nature Communications, 2018)
